Test results published in patent publication US6696621B2, “Selectable marker in plants” (Paradigm Genetics, Inc., priority 2001, dated 2004).

B1: NRG protein: novel nourseothricin N-acetyltransferase, amino acid sequence of SEQ ID NO. 1; confers resistance to nourseothricin (protein)
chain: MTTLDDTAYRYRTSVPGDAEAIEALDGSFTTDTVFRVTATGDGFTLREVPVDPPLTKVFPDDESDDESDDGEDGDPDSRTFVAYGDDGDLAGFVVVSYSGWNRRLTVEDIEVAPEHRGHGVGRALMGLATEFARERGAGHLWLEVTNVNAPAIHAYRRMGFTLCGLDTALYDGTASDGEQALYMSMPCP
modifications: Novel protein conferring resistance to the antibiotic known as nourseothricin

What was measured:
[1] = test system: rice callus, derived from immature rice embryos of the variety TP309; experiment: Dose response of clonNAT on rice callus growth and survival; format: cell-based; details: 26° C. in the dark
Procedure: a) Dose response. For selection of transgenic calli based on resistance to clonNAT following Agrobacterium-mediated transformation of rice callus material, a dose response experiment is made to determine the concentration of clonNAT in callus growth medium in order to inhibit the growth of rice callus, or to kill the rice cells. Growth media (GM) used for rice callus comprise the following basic components: N6 salts (Duchefa) 3.95 g/l; B5 vitamins (Duchefa) 112 mg/l; proline (Duchefa) 500 mg/l; glutamine (Duchefa) 500 mg/l; casein hydrolysate (Duchefa) 500 mg/l. […]
Several pieces of rice callus, derived from immature rice embryos of the variety TP309 (National Small Grain Collection, USDA, ARS, Aberdeen, Id.) are put on these plates, the plates are incubated at 26° C. in the dark, and survival of the embryos and proliferation of the embryo cells are observed every day. Based on the survival rate of the embryos on the media plates containing different concentrations of clonNAT, a useful concentration of clonNAT for selection of transgenic rice is determined to be within a range of about 20 to about 1000 mg/l or more, preferably about 200 mg/l or less. […]

[2] = test system: wildtype Arabidopsis thaliana; experiment: Dose response of clonNAT sprayed on wildtype Arabidopsis thaliana seedlings; format: in vivo; details: sprayed on three consecutive days with 0.005% Silwet L-77; assessed 36 hours after last spray
Procedure: a) Dose response. The selection conditions for plants that are transgenic with the nrg gene are determined in a dose response experiment. From about 2000 to 3000 wildtype Arabidopsis thaliana seeds per pot are sown in 5″×5″ (13 cm×13 cm) soil pots. When the first true leaves of the seedlings have emerged after approximately 7 days, the seedlings are sprayed with a hand-held sprayer until all leaf material is completely wet on three consecutive days with a solution of 0.005% Silwet L-77 (50 ul/l) in water and variable concentrations of clonNAT (1, 5, 10, 20, 50, 100, 250, 500 mg/l). The results are assessed 36 hours after the last spray. A useful range of concentration of clonNAT for selection of transgenic Arabidopsis plants (as assessed as concentrations that kill non-transgenic Arabidopsis plants after applying the described sprayings) is determined within a range of about 20 to about 1000 mg/l or more, preferably about 200 mg/l or less.

[3] = Ability of NRG protein to impart resistance to nourseothricin; details: NRG protein with aspartate instead of glycine at position 70

| Molecule | preferred concentration of clonNAT for selection of transgenic rice ([1]; callus growth medium plates, based on survival rate of embryos) | fate of embryo-derived rice callus on clonNAT-containing medium plates ([1]; clonNAT 200 mg/l selection plates, after 4-5 weeks) | preferred concentration of clonNAT for selection of transgenic Arabidopsis plants [2] | ability to impart resistance to the nourseothricin antibiotic [3] |
| --- | --- | --- | --- | --- |
| 2-[4-O-Carbamoyl-2-deoxy-2-(3,6-diaminohexan-amido)-B-D-gulopyranoslamino)-3,3a,5 ,6,7,7a-hexahydro-5-hydroxy-4H-imidazo[4,5-c]pyridin-4one dihydrogensulphate [clonNAT] | ≤ 200 mg/L | died | ≤ 200 mg/L |  |
| B1 |  |  |  | retains the ability to impart resistance |
